Test results from patent US20120107398A1, “PHARMACEUTICAL COMPOSITIONS” (BOEHRINGER INGELHEIM INTERNATIONAL GMBH, priority 2010, published 2012).
Counter-ions that a name gives are not always drawn.

Test: Solubility of pioglitazone hydrochloride
Format: physicochemical
Protocol: For pioglitazone hydrochloride the intrinsic dissolution rates in aqueous media are only above 1000 μg/cm^2/min at pH 1, whereas for less acidic solutions (e.g. pH 2) the intrinsic dissolution rates are below 100 μg/cm^2/min. Therefore, the intrinsic dissolution rate of pioglitazone hydrochloride may be rate limiting for dissolution/absorption of the composition and pose an additional risk for providing similar dissolution profiles of pioglitazone hydrochloride in the composition to the original mono tablets (e.g. Actos) or combination market tablets (e.g. Duetact, Competact) and/or for matching bioequivalence with the original mono or combination market tablets.

## CCc1ccc(CCOc2ccc(CC3SC(=O)NC3=O)cc2)nc1 (stereo not drawn) [pioglitazone hydrochloride]
Strongly acidic media
  solubility in strongly acidic media: slightly better solubility
water
  solubility in water: practically insoluble
Weak acidic and neutral to basic media
  solubility in weak acidic and neutral to basic media: very poor solubility
